This test has as its system mono-methyl arginine in RKO cells. Kind of test: RKO Methylation Assay (In Cell Western). Conditions: Homo sapiens, 72 hours. Format: cell-based. An excerpt:
RKO Methylation Assay RKO adherent cells were purchased from ATCC (American Type Culture Collection), Manassas, Va., USA. DMEM/Glutamax medium, penicillin-streptomycin, heat inactivated fetal bovine serum, 0.05% trypsin and D-PBS were purchased from Life Technologies, Grand Island, N.Y., USA. Odyssey blocking buffer, 800CW goat anti-rabbit IgG (H+L) antibody, and Licor Odyssey infrared scanner were purchased from Licor Biosciences, Lincoln, Nebr., USA. Mono-methyl arginine antibody was purchased from Cell Signaling Technology, Danvers, Mass., USA. Methanol was purchased from VWR, Franklin, Mass., USA. 10% Tween 20 was purchased from KPL, Inc., Gaithersburg, Md., USA. DRAQ5 was purchased from Biostatus Limited, Leicestershire, UK. RKO adherent cells were maintained in growth medium (DMEM/Glutamax medium supplemented with 10% v/v heat inactivated fetal bovine serum and 100 units/mL penicillin-streptomycin) and cultured at 37° C. under 5% CO2. Cell Treatment, in Cell Western (ICW) for Detection of Mono-Methyl Arginine and DNA Content. RKO cells were seeded in assay medium at a concentration of 20,000 cells per mL to a poly-D-lysine coated 384 well culture plate (BD Biosciences 356697) with 50 μL per well. Compound (100 nL) from a 96-well source plate was added directly to 384 well cell plate. Plates were incubated at 37° C., 5% CO2 for 72 hours. After three days of incubation, plates were brought to room temperature outside of the incubator for ten minutes and blotted on paper towels to remove cell media. 50 μL of ice cold 100% methanol was added directly to each well and incubated for 30 min at room temperature. After 30 min, plates were transferred to a Biotek EL406 plate washer and washed 2 times with 100 μL per well of wash buffer (1×PBS). Next 60 μL per well of Odyssey blocking buffer (Odyssey Buffer with 0.1% Tween 20 (v/v)) were added to each plate and incubated 1 hour at room temperature. Blocking buffer was removed and 20 μL per well of primary antibody was added (mono-methyl arginine diluted 1:200 in Odyssey buffer with 0.1% Tween 20 (v/v)) and plates were incubated overnight (16 hours) at 4° C. Plates were washed 5 times with 100 μL per well of wash buffer. Next 20 μL per well of secondary antibody was added (1:200 800CW goat anti-rabbit IgG (H+L) antibody, 1:1000 DRAQ5 (Biostatus limited) in Odyssey buffer with 0.1% Tween 20 (v/v)) and incubated for 1 hour at room temperature. The plates were washed 5 times with 100 μL per well wash buffer then 2 times with 100 μL per well of water. Plates were allowed to dry at room temperature then imaged on the Licor Odyssey machine which measures integrated intensity at 700 nm and 800 nm wavelengths. Both 700 and 800 channels were scanned. […] Each plate included fourteen control wells of DMSO only treatment (minimum activation) as well as fourteen control wells for maximum activation treated with 20 μM of a reference compound. The average of the ratio values for each control type was calculated and used to determine the percent activation for each test well in the plate. Reference compound was serially diluted three-fold in DMSO for a total of nine test concentrations, beginning at 20 μM. Percent activation was determined and EC30 curves were generated using triplicate

[1] abbreviates: numerical, single experiment or average of multiple experiments, read-out: In Cell Western EC30.
The mark [2] stands for this setting: read-out: In Cell Western EC30 (class).

Like-named read-outs stand apart in the source and are kept apart here. Where only a bound is given, the exact number is not on record here.

The text below walks through data of patent publication US20160031839A1, “ARGININE […] INHIBITORS AND USES THEREOF” (EPIZYME, INC., priority 2013, published 2016).

In the case of `CN(CCN)Cc1ncoc1-c1ccc(C#N)cc1` [Compound 1, 4-(4-(((2-aminoethyl)(methyl)amino)methyl)oxazol-5-yl)benzonitrile], the EC30 by setting is: under setting [1], 14.2 µM; under setting [2], at least 12 µM.

`CN(CCN)Cc1ccnn1-c1ccc(C#N)cc1` [Compound 2, 4-(5-(((2-aminoethyl)(methyl)amino)methyl)-1H-pyrazol-1-yl)benzonitrile]: the EC30 reads like this: under setting [1], 15.1 µM; under setting [2], at least 12 µM.

Turning to `CN(CCN)Cc1n[nH]nc1-c1ccc(C#N)cc1` [Compound 3, 4-(5-(((2-aminoethyl)(methyl)amino)methyl)-2H-1,2,3-triazol-4-yl)benzonitrile], the EC30 is 18.6 µM under setting [1] and at least 12 µM under setting [2].

On to `CN(CCN)Cc1ocnc1-c1ccc(C#N)cc1` [Compound 4, 4-(5-(((2-aminoethyl)(methyl)amino)methyl)oxazol-4-yl)benzonitrile], for which the EC30 is, setting by setting: under setting [1], 1.41 µM; under setting [2], at most 3 µM.

Consider `CN(CCN)Cc1cnnn1-c1ccc(C#N)cc1` [Compound 5, 4-(5-(((2-aminoethyl)(methyl)amino)methyl)-1H-1,2,3-triazol-1-yl)benzonitrile], for which the EC30 was above 20 µM under setting [1] and at least 12 µM under setting [2].

On to `CN(CCN)Cc1cncn1-c1ccc(C#N)cc1` [Compound 6, 4-(5-(((2-aminoethyl)(methyl)amino)methyl)-1H-imidazol-1-yl)benzonitrile], for which the EC30 was above 20 µM under setting [1] and at least 12 µM under setting [2].

Turning to `CN(CCN)Cc1nsnc1-c1ccc(C#N)cc1` [Compound 7, 4-(4-(((2-aminoethyl)(methyl)amino)methyl)-1,2,5-thiadiazol-3-yl)benzonitrile], the EC30 is above 20 µM under setting [1] and at least 12 µM under setting [2].

With `CC(C)Oc1ccc(-n2nccc2CN(C)CCN)cc1` [Compound 8, N^1-((1-(4-isopropoxyphenyl)-1H-pyrazol-5-yl)methyl)-N^1-methylethane-1,2-diamine], the EC30 by setting is: under setting [1], 1.63 µM; under setting [2], at most 3 µM.

Turning to `CN(CCN)Cc1ccnn1-c1ccc(Oc2ccccc2)cc1` [Compound 9], the EC30 by setting is: under setting [1], 2.31 µM; under setting [2], at most 3 µM.

On to `CN(CCN)Cc1[nH]cnc1-c1ccc(C#N)cc1` [Compound 10, 4-(5-(((2-aminoethyl)(methyl)amino)methyl)-1H-imidazol-4-yl)benzonitrile], for which the EC30 under setting [1] is above 20 µM and the EC30 under setting [2] was at least 12 µM.

As for `CN(CCN)Cc1oncc1-c1ccc(F)cc1` [Compound 11, N^1-((4-(4-fluorophenyl)isoxazol-5-yl)methyl)-N^1-methylethane-1,2-diamine], the EC30 reads like this: under setting [1], above 20 µM; under setting [2], at least 12 µM.
